In US11400059B2, “Treatment of pain and/or pain related symptoms associated with dysmenorrhea” (ALYRA BIOTECH PTY LTD, priority 2017, dated 2022):

Experiments:
Assay type in all cases: cell-based
hDectin-1b = molecular target: T1, hDectin-1b (Homo sapiens, UniProt Q9BXN2); assay: Human CLR agonist screening, NF-κB SEAP reporter in HEK293 cells; conditions: agonist mode, Curdlan 100 μg/mL
T1 construct: expressed in transfected cells; host or cells: HEK293
Method: (§1) Toll-Like Receptor (TLR), NOD-Like Receptor (NLR) and C-Type Lectin Receptor (CLR) stimulation were tested by assessing NF-κB activation in HEK293 cells expressing a given TLR, NLR or CLR. The activity of the test articles was tested at one concentration and compared to control ligands. These steps were performed in triplicate.
(§2) hDectin-1a and hDectin-1b: WGP Soluble (0-glucan from S. cerevisiae) at 10 ng/mL Antagonist: 5 ng/mL. Curdlan at 100 μg/mL. Antagonist: 100 μg/mL. Zymosan Depleted (hot alkali treated S. cerevisiae) at 5 μg/mL Antagonist: 3 μg/mL.
(§3) In a 96-well plate (200 μL total volume) containing the appropriate cells (50,000-75,000 cells/well), 20 μL of the test article or the positive control ligand was added to the wells. For the antagonist assay, the test article was incubated with the cells, at 37° C. with 5% CO2, for 30 minutes prior to the addition of the positive control ligand to the wells. The media added to the wells was designed for the detection of NF-κB induced SEAP expression. After a 16-24 hr incubation the optical density (OD) was read at 650 nm on a Molecular Devices SpectraMax 340PC absorbance detector.
(§4) Fold Induction (Ratio of Average Induced Value to Average Non-Induced Value): […]

hDectin-1a = molecular target: T2, hDectin-1a (Homo sapiens, UniProt Q9BXN2); assay: as above; conditions: agonist mode, Curdlan 100 μg/mL
T2 construct: expressed in transfected cells; host or cells: HEK293
T2 sequence (Q9BXN2 whole entry): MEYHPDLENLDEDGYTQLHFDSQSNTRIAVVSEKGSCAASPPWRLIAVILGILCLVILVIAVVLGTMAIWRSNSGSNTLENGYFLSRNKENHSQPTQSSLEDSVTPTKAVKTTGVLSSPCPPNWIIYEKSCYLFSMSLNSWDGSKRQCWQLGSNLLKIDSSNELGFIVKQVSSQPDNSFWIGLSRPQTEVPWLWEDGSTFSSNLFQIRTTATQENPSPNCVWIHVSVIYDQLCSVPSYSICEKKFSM
Method: as §1, §2, §3, §4

hTLR7 = molecular target: T3, hTLR7 (Homo sapiens, UniProt Q9NYK1); assay: Human TLR/NLR agonist screening, NF-κB SEAP reporter in HEK293 cells; conditions: agonist mode, Control+ = CL307 1 μg/mL
T3 construct: expressed in transfected cells; host or cells: HEK293
T3 sequence (Q9NYK1 27-1049): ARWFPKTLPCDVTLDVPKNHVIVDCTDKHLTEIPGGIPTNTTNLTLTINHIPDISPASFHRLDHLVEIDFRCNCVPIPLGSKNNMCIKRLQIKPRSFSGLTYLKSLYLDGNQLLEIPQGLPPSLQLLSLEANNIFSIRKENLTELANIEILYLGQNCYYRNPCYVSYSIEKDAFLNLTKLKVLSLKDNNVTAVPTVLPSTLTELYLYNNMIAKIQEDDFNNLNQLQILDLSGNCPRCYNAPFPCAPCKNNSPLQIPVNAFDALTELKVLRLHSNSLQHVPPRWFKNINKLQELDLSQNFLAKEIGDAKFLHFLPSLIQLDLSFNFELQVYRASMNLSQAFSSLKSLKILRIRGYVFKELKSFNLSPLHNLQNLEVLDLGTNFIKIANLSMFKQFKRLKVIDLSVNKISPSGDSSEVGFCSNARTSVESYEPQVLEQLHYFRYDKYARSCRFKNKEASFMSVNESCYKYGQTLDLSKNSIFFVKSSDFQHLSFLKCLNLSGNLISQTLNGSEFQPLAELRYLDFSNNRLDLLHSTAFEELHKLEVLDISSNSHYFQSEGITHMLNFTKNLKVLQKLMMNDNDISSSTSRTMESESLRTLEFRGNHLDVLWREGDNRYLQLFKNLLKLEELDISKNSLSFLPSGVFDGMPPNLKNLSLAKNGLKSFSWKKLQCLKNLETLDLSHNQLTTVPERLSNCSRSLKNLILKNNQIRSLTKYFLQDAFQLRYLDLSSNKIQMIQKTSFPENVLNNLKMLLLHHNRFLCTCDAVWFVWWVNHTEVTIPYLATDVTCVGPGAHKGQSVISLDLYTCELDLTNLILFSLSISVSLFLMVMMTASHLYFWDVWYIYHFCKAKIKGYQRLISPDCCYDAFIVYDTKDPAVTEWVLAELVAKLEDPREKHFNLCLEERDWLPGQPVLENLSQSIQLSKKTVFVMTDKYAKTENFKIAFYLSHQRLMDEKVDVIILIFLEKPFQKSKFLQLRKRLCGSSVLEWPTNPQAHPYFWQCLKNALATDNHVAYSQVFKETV
Method: as §1
hTLR7: CL307 at 1 μg/mL Antagonist: 10 ng/mL.
as §3
The fold induction (ratio of average induced value to average non-induced value) results were as follows: […]

T1 sequence (Q9BXN2 1-201 isoform Q9BXN2-2): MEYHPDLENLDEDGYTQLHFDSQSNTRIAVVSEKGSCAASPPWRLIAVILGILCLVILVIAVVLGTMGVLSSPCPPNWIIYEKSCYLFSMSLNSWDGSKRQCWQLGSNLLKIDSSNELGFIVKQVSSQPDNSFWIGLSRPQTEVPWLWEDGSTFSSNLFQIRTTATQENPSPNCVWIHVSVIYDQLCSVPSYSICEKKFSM

Molecule: Curdlan
- Fold induction (ratio of average induced value to average non-induced value) (hDectin-1b): 8
- Fold induction (ratio of average induced value to average non-induced value) (hDectin-1a): 6

Molecule: CCCCNc1nc(N)c2[nH]c(=O)n(Cc3ccc(C(=O)NCC(=O)NCCCNCCCCNCCCN)cc3)c2n1 [CL307]
- Fold induction (ratio of average induced value to average non-induced value) (hTLR7): 34
